Measured values reported in EP0090603A2, “Antibacterial compounds” (BEECHAM GROUP PLC, priority 1982, dated 1983).
In brackets after ≈: the same amount, converted by molar mass.

Experiments:
Type in all cases: cell-based
M. suipneumoniae NB12 = test: MIC against Mycoplasma, in vitro agar dilution; conditions: Friis broth solidified with 0.9% agarose, 10^3 to 10^5 C.F.U., 6 days at 37°C; for MIC: Mesomycoplasma hyopneumoniae, NB12, 144 h, read-out: MIC's against M. suipneumoniae NB12
M. suipneumoniae JF 435 = test: MIC against Mycoplasma, in vitro agar dilution; conditions: Friis broth solidified with 0.9% agarose, 10^3 to 10^5 C.F.U., 6 days at 37°C; for MIC: Mesomycoplasma hyopneumoniae, JF435, 144 h, read-out: MIC's against M. suipneumoniae JF 435
M. suipneumoniae HK(2) = test: MIC against Mycoplasma, in vitro agar dilution; conditions: Friis broth solidified with 0.9% agarose, 10^3 to 10^5 C.F.U., 6 days at 37°C; for MIC: Mesomycoplasma hyopneumoniae, 144 h, read-out: MIC's against M. suipneumoniae HK(2)
M. suipneumoniae Str. 11 = test: MIC against Mycoplasma, in vitro agar dilution; conditions: Friis broth solidified with 0.9% agarose, 10^3 to 10^5 C.F.U., 6 days at 37°C; for MIC: Mesomycoplasma hyopneumoniae, STR.11, 144 h, read-out: MIC's against M. suipneumoniae Str. 11
[1] = system: M. suipneumoniae J2206/183^b; test: MIC against Mycoplasma, in vitro agar dilution; conditions: Friis broth solidified with 0.9% agarose, 10^3 to 10^5 C.F.U., 6 days at 37°C; for MIC: Mesomycoplasma hyopneumoniae, 144 h, read-out: MIC's against M. suipneumoniae J2206/183^b
M. suipneumoniae MS 16 = test: MIC against Mycoplasma, in vitro agar dilution; conditions: Friis broth solidified with 0.9% agarose, 10^3 to 10^5 C.F.U., 6 days at 37°C; for MIC: Mesomycoplasma hyopneumoniae, MS16, 144 h, read-out: MIC's against M. suipneumoniae MS 16
[2] = system: M. suipneumoniae PW/C/210; test: MIC against Mycoplasma, in vitro agar dilution; conditions: Friis broth solidified with 0.9% agarose, 10^3 to 10^5 C.F.U., 6 days at 37°C; for MIC: Mesomycoplasma hyopneumoniae, 144 h, read-out: MIC's against M. suipneumoniae PW/C/210
M. suipneumoniae LABER = test: MIC against Mycoplasma, in vitro agar dilution; conditions: Friis broth solidified with 0.9% agarose, 10^3 to 10^5 C.F.U., 6 days at 37°C; for MIC: Mesomycoplasma hyopneumoniae, 144 h, read-out: MIC's against M. suipneumoniae LABER
M. suipneumoniae UCD 1 = test: MIC against Mycoplasma, in vitro agar dilution; conditions: Friis broth solidified with 0.9% agarose, 10^3 to 10^5 C.F.U., 6 days at 37°C; for MIC: Mesomycoplasma hyopneumoniae, UCD1, 144 h, read-out: MIC's against M. suipneumoniae UCD 1
M. suipneumoniae TAM 6N = test: MIC against Mycoplasma, in vitro agar dilution; conditions: Friis broth solidified with 0.9% agarose, 10^3 to 10^5 C.F.U., 6 days at 37°C; for MIC: Mesomycoplasma hyopneumoniae, TAM6N, 144 h, read-out: MIC's against M. suipneumoniae TAM 6N
[3] = system: M. suipneumoniae ATCC 25095; test: MIC against Mycoplasma, in vitro agar dilution; conditions: Friis broth solidified with 0.9% agarose, 10^3 to 10^5 C.F.U., 6 days at 37°C; for MIC: Mesomycoplasma hyopneumoniae, ATCC25095, 144 h, read-out: MIC's against M. suipneumoniae ATCC 25095
[4] = system: M. suipneumoniae NCTC 10110; test: MIC against Mycoplasma, in vitro agar dilution; conditions: Friis broth solidified with 0.9% agarose, 10^3 to 10^5 C.F.U., 6 days at 37°C; for MIC: Mesomycoplasma hyopneumoniae, NCTC10110, 144 h, read-out: MIC's against M. suipneumoniae NCTC 10110
M. hyorhinis ATCC 23234 = test: MIC against Mycoplasma, in vitro agar dilution; conditions: Friis broth solidified with 0.9% agarose, 10^3 to 10^5 C.F.U., 6 days at 37°C; for MIC: Mesomycoplasma hyorhinis, ATCC23234, 144 h, read-out: MIC's against M. hyorhinis ATCC 23234
M. hyorhinis ATCC 25021 = test: MIC against Mycoplasma, in vitro agar dilution; conditions: Friis broth solidified with 0.9% agarose, 10^3 to 10^5 C.F.U., 6 days at 37°C; for MIC: Mesomycoplasma hyorhinis, ATCC25021, 144 h, read-out: MIC's against M. hyorhinis ATCC 25021
[5] = system: M. hyosynoviae ATCC 25591; test: MIC against Mycoplasma, in vitro agar dilution; conditions: Friis broth solidified with 0.9% agarose, 10^3 to 10^5 C.F.U., 6 days at 37°C; for MIC: 144 h, read-out: MIC's against M. hyosynoviae ATCC 25591
M. bovis NCTC 10131 = test: microbe, parasite or virus in culture; conditions: for MIC: NCTC10131, 144 h, read-out: MIC's against M. bovis NCTC 10131; for MIC's against M. bovis NCTC 10131: Friis broth solidified with 0.9% agarose, 10^3 to 10^5 C.F.U., 6 days at 37°C
[6] = system: M. bovigenitalium ATCC 14173; test: MIC against Mycoplasma, in vitro agar dilution; conditions: Friis broth solidified with 0.9% agarose, 10^3 to 10^5 C.F.U., 6 days at 37°C; for MIC: 144 h, read-out: MIC's against M. bovigenitalium ATCC 14173
M. dispar NCTC 10125 = test: MIC against Mycoplasma, in vitro agar dilution; conditions: Friis broth solidified with 0.9% agarose, 10^3 to 10^5 C.F.U., 6 days at 37°C; for MIC: 144 h, read-out: MIC's against M. dispar NCTC 10125
M. gallisepticum S6 = test: MIC against Mycoplasma, in vitro agar dilution; conditions: Friis broth solidified with 0.9% agarose, 10^3 to 10^5 C.F.U., 6 days at 37°C; for MIC: Mycoplasmoides gallisepticum, S6, 144 h, read-out: MIC's against M. gallisepticum S6
M. pneumoniae ATCC 15492 = test: MIC against Mycoplasma, in vitro agar dilution; conditions: Friis broth solidified with 0.9% agarose, 10^3 to 10^5 C.F.U., 6 days at 37°C; for MIC: Mycoplasmoides pneumoniae, ATCC15492, 144 h, read-out: MIC's against M. pneumoniae ATCC 15492

## CC(CC1OCC(CC2OC2C(C)C(C)O)C(O)C1O)=C(C)C(=O)OCCCCCCCCC(=O)O [Example 7, Sodium 9-[4-(5S-(2S,3S-epoxy-5S-hydroxy-4S-methylhexyl) -3R,4R-dihdroxytetrahydroxyran-2S-yl)-2,3-dimethylbut-2(E)-enoyloxy]nonanoate]
M. suipneumoniae NB12
  MIC: 10 µg/mL
M. suipneumoniae JF 435
  MIC: > 10 µg/mL
M. suipneumoniae HK(2)
  MIC: > 10 µg/mL
M. suipneumoniae Str. 11
  MIC: 5 µg/mL
[1]
  MIC: > 10 µg/mL
M. suipneumoniae MS 16
  MIC: 5 µg/mL
[2]
  MIC: 5 µg/mL
M. suipneumoniae LABER
  MIC: 5 µg/mL
M. suipneumoniae UCD 1
  MIC: > 10 µg/mL
M. suipneumoniae TAM 6N
  MIC: > 10 µg/mL
[3]
  MIC: 10 µg/mL
[4]
  MIC: 10 µg/mL
M. hyorhinis ATCC 23234
  MIC: 2.5 µg/mL
M. hyorhinis ATCC 25021
  MIC: 2.5 µg/mL
[5]
  MIC: 1 µg/mL
M. bovis NCTC 10131
  MIC: 0.05 µg/mL
[6]
  MIC: 0.5 µg/mL
M. dispar NCTC 10125
  MIC: 2.5 µg/mL
M. gallisepticum S6
  MIC: > 10 µg/mL
M. pneumoniae ATCC 15492
  MIC: > 10 µg/mL

## CC(CC1OCC(CC2OC2C(C)C(C)O)C(O)C1O)=C(C)C(=O)OCc1cc(C)no1 (stereo not shown) [Example 14, 3-Methyl-5-isoxazolylmethyl 2-methylmonate A]
M. suipneumoniae NB12
  MIC: 0.5 µg/mL (≈ 1.1 µM)
M. suipneumoniae JF 435
  MIC: 0.5 µg/mL (≈ 1.1 µM)
M. suipneumoniae HK(2)
  MIC: 0.5 µg/mL (≈ 1.1 µM)
M. suipneumoniae Str. 11
  MIC: 0.25 µg/mL (≈ 0.551 µM)
[1]
  MIC: 0.5 µg/mL (≈ 1.1 µM)
M. suipneumoniae MS 16
  MIC: 0.25 µg/mL (≈ 0.551 µM)
[2]
  MIC: 0.25 µg/mL (≈ 0.551 µM)
M. suipneumoniae LABER
  MIC: 0.25 µg/mL (≈ 0.551 µM)
M. suipneumoniae UCD 1
  MIC: 0.5 µg/mL (≈ 1.1 µM)
M. suipneumoniae TAM 6N
  MIC: 1 µg/mL (≈ 2.2 µM)
[3]
  MIC: 0.5 µg/mL (≈ 1.1 µM)
[4]
  MIC: 0.5 µg/mL (≈ 1.1 µM)
M. hyorhinis ATCC 23234
  MIC: 0.25 µg/mL (≈ 0.551 µM)
M. hyorhinis ATCC 25021
  MIC: 0.25 µg/mL (≈ 0.551 µM)
[5]
  MIC: 0.1 µg/mL (≈ 0.22 µM)
M. bovis NCTC 10131
  MIC: ≤ 0.01 µg/mL
[6]
  MIC: 0.025 µg/mL (≈ 0.0551 µM)
M. dispar NCTC 10125
  MIC: 0.1 µg/mL (≈ 0.22 µM)
M. gallisepticum S6
  MIC: 1 µg/mL (≈ 2.2 µM)
M. pneumoniae ATCC 15492
  MIC: 1 µg/mL (≈ 2.2 µM)

## CC(CC1OCC(CC2OC2C(C)C(C)O)C(O)C1O)=C(C)C(=O)OCc1ccc(Br)cc1 (stereo not shown) [Example 12, 4-Bromobenzyl 2-methylmonate A]
M. suipneumoniae NB12
  MIC: 5 µg/mL (≈ 9.48 µM)
M. suipneumoniae JF 435
  MIC: 10 µg/mL (≈ 19 µM)
M. suipneumoniae HK(2)
  MIC: 10 µg/mL (≈ 19 µM)
M. suipneumoniae Str. 11
  MIC: 5 µg/mL (≈ 9.48 µM)
[1]
  MIC: 10 µg/mL (≈ 19 µM)
M. suipneumoniae MS 16
  MIC: 5 µg/mL (≈ 9.48 µM)
[2]
  MIC: 5 µg/mL (≈ 9.48 µM)
M. suipneumoniae LABER
  MIC: 5 µg/mL (≈ 9.48 µM)
M. suipneumoniae UCD 1
  MIC: 10 µg/mL (≈ 19 µM)
M. suipneumoniae TAM 6N
  MIC: 10 µg/mL (≈ 19 µM)
[3]
  MIC: 5 µg/mL (≈ 9.48 µM)
[4]
  MIC: 10 µg/mL (≈ 19 µM)
M. hyorhinis ATCC 23234
  MIC: 2.5 µg/mL (≈ 4.74 µM)
M. hyorhinis ATCC 25021
  MIC: 2.5 µg/mL (≈ 4.74 µM)
[5]
  MIC: 2.5 µg/mL (≈ 4.74 µM)
M. bovis NCTC 10131
  MIC: 0.1 µg/mL (≈ 0.19 µM)
[6]
  MIC: 0.25 µg/mL (≈ 0.474 µM)
M. dispar NCTC 10125
  MIC: 2.5 µg/mL (≈ 4.74 µM)
M. gallisepticum S6
  MIC: > 10 µg/mL
M. pneumoniae ATCC 15492
  MIC: 10 µg/mL (≈ 19 µM)

## 4-(Methylthio)benzyl 2-methylmonate [Example 11]
M. suipneumoniae NB12
  MIC's against M. suipneumoniae NB12: 1.0 µg/mL
M. suipneumoniae JF 435
  MIC's against M. suipneumoniae JF 435: 2.5 µg/mL
M. suipneumoniae HK(2)
  MIC's against M. suipneumoniae HK(2): 2.5 µg/mL
M. suipneumoniae Str. 11
  MIC's against M. suipneumoniae Str. 11: 1.0 µg/mL
[1]
  MIC's against M. suipneumoniae J2206/183^b: 2.5 µg/mL
M. suipneumoniae MS 16
  MIC's against M. suipneumoniae MS 16: 1.0 µg/mL
[2]
  MIC's against M. suipneumoniae PW/C/210: 1.0 µg/mL
M. suipneumoniae LABER
  MIC's against M. suipneumoniae LABER: 1.0 µg/mL
M. suipneumoniae UCD 1
  MIC's against M. suipneumoniae UCD 1: 2.5 µg/mL
M. suipneumoniae TAM 6N
  MIC's against M. suipneumoniae TAM 6N: 2.5 µg/mL
[3]
  MIC's against M. suipneumoniae ATCC 25095: 2.5 µg/mL
[4]
  MIC's against M. suipneumoniae NCTC 10110: 2.5 µg/mL
M. hyorhinis ATCC 23234
  MIC's against M. hyorhinis ATCC 23234: 1.0 µg/mL
M. hyorhinis ATCC 25021
  MIC's against M. hyorhinis ATCC 25021: 0.5 µg/mL
[5]
  MIC's against M. hyosynoviae ATCC 25591: 0.25 µg/mL
M. bovis NCTC 10131
  MIC's against M. bovis NCTC 10131: 0.05 µg/mL
[6]
  MIC's against M. bovigenitalium ATCC 14173: 0.1 µg/mL
M. dispar NCTC 10125
  MIC's against M. dispar NCTC 10125: 0.5 µg/mL
M. gallisepticum S6
  MIC's against M. gallisepticum S6: 10 µg/mL
M. pneumoniae ATCC 15492
  MIC's against M. pneumoniae ATCC 15492: 5.0 µg/mL

## 8-Hydroxyoctyl 2-methylmonate A [Example 13]
M. suipneumoniae NB12
  MIC's against M. suipneumoniae NB12: 1.0 µg/mL
M. suipneumoniae JF 435
  MIC's against M. suipneumoniae JF 435: 1.0 µg/mL
M. suipneumoniae HK(2)
  MIC's against M. suipneumoniae HK(2): 1.0 µg/mL
M. suipneumoniae Str. 11
  MIC's against M. suipneumoniae Str. 11: 0.5 µg/mL
[1]
  MIC's against M. suipneumoniae J2206/183^b: 1.0 µg/mL
M. suipneumoniae MS 16
  MIC's against M. suipneumoniae MS 16: 0.5 µg/mL
[2]
  MIC's against M. suipneumoniae PW/C/210: 0.5 µg/mL
M. suipneumoniae LABER
  MIC's against M. suipneumoniae LABER: 0.5 µg/mL
M. suipneumoniae UCD 1
  MIC's against M. suipneumoniae UCD 1: 1.0 µg/mL
M. suipneumoniae TAM 6N
  MIC's against M. suipneumoniae TAM 6N: 1.0 µg/mL
[3]
  MIC's against M. suipneumoniae ATCC 25095: 0.5 µg/mL
[4]
  MIC's against M. suipneumoniae NCTC 10110: 1.0 µg/mL
M. hyorhinis ATCC 23234
  MIC's against M. hyorhinis ATCC 23234: 0.5 µg/mL
M. hyorhinis ATCC 25021
  MIC's against M. hyorhinis ATCC 25021: 0.5 µg/mL
[5]
  MIC's against M. hyosynoviae ATCC 25591: 0.1 µg/mL
M. bovis NCTC 10131
  MIC's against M. bovis NCTC 10131: ≤0.01 µg/mL
[6]
  MIC's against M. bovigenitalium ATCC 14173: 0.05 µg/mL
M. dispar NCTC 10125
  MIC's against M. dispar NCTC 10125: 0.1 µg/mL
M. gallisepticum S6
  MIC's against M. gallisepticum S6: 5.0 µg/mL
M. pneumoniae ATCC 15492
  MIC's against M. pneumoniae ATCC 15492: 1.0 µg/mL
